Source: US8304447B2, “2-acylaminopropoanol-type glucosylceramide synthase inhibitors” (Genzyme Corporation, priority 2007, dated 2012)
pIC50: −log10 of the molar value.

System: GM3
Assay: GM3 Elisa assay
Type: cell-based
Details: 48 h, Table 1; B16-FO cells, 2 days incubation; read-out: IC50_uM_Mean
Method in brief: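 Cellular GM3 ELISA: fixed cells probed with monoclonal anti-GM3 (NeuAc), HRP-conjugated anti-IgM and fluorogenic Quantablu substrate, read at Ex 325/Em 420. Cells were B16-FO, treated 2 days after a 6 h attachment on collagen-coated wells.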

| pIC50 | SMILES |
| --- | --- |
| ≥ 7.00 | Cc1ccc(OCCC(=O)N[C@H](CN2CCCC2)[C@H](O)c2ccc3c(c2)OCCO3)cc1 [Compound 59, N-((1R,2R)-1-(2,3-dihydrobenzo[β][1,4]dioxin-6-yl)-1-hydroxy-3-(pyrrolidin-1-yl)propan-2-yl)-3-(p-tolyloxy)propanamide] |
| 6.00 to 7.00 | O=C(N[C@H](CN1CCCC1)[C@H](O)c1ccc2c(c1)OCCO2)c1cc2ccccc2s1 [Compound 5, N-((1R,2R)-1-(2,3-dihydrobenzo[β][1,4]dioxin-6-yl)-1-hydroxy-3-(pyrrolidin-1-yl)propan-2-yl)benzo[b]thiophene-2-carboxamide] |
| 6.00 to 7.00 | O=C(CCCCNC(=O)c1ccccc1)N[C@H](CN1CCCC1)[C@H](O)c1ccc2c(c1)OCCO2 [Compound 104, N-(5-((1R,2R)-1-(2,3-dihydrobenzo[β][1,4]dioxin-6-yl)-1-hydroxy-3-(pyrrolidin-1-yl)propan-2-ylamino)-5-oxopentyl)benzamide] |
| ≥ 7.00 | COc1c(C)cc(C(=O)CCCCC(=O)N[C@H](CN2CCCC2)[C@H](O)c2ccc3c(c2)OCCO3)cc1C [Compound 140, N-((1R,2R)-1-(2,3-dihydrobenzo[β][1,4]dioxin-6-yl)-1-hydroxy-3-(pyrrolidin-1-yl)propan-2-yl)-6-(4-methoxy-3,5-dimethylphenyl)-6-oxohexanamide] |
| ≥ 7.00 | O=C(Nc1ccc(OC(F)(F)F)cc1)N[C@H](CN1CCCC1)[C@H](O)c1ccc2c(c1)OCCO2 [Compound 82, 1-((1R,2R)-1-(2,3-dihydrobenzo[β][1,4]dioxin-6-yl)-1-hydroxy-3-(pyrrolidin-1-yl)propan-2-yl)-3-(4-(trifluoromethoxy)phenyl)urea] |
| 6.00 to 7.00 | O=C(CCCC(=O)c1ccccc1)N[C@H](CN1CCCC1)[C@H](O)c1ccc2c(c1)OCCO2 [Compound 113, N-((1R,2R)-1-(2,3-dihydrobenzo[β][1,4]dioxin-6-yl)-1-hydroxy-3-(pyrrolidin-1-yl)propan-2-yl)-5-oxo-5-phenylpentanamide] |
| ≥ 7.00 | COc1cccc(-c2ccc(CC(=O)N[C@H](CN3CCCC3)[C@H](O)c3ccc4c(c3)OCCO4)cc2)c1 [Compound 63, N-((1R,2R)-1-(2,3-dihydrobenzo[β][1,4]dioxin-6-yl)-1-hydroxy-3-(pyrrolidin-1-yl)propan-2-yl)-2-(3 methoxybiphenyl-4-yl)acetamide] |

Same assay, conditions: 48 h, Table 2; B16-FO cells, 2 days incubation; read-out: IC50_uM_Mean

| pIC50 | SMILES |
| --- | --- |
| ≥ 7.00 | COC(=O)CO[C@H](c1ccc2c(c1)OCCO2)[C@@H](CN1CCCC1)NC(=O)CCOc1ccc(OC)cc1 [Compound 275] |
| 5.52 to 6.00 | CCCCCCCC(=O)N[C@H](CNCCCC)[C@H](O)c1ccc2c(c1)OCCO2 [Compound 310] |
| 6.00 to 7.00 | O=C(CCCc1nc(-c2cccs2)no1)N[C@H](CN1CCCC1)[C@H](OC(=O)CCCc1nc(-c2cccs2)no1)c1ccc2c(c1)OCCO2 [Compound 254] |

Same assay, conditions: Table 3 (IC 50 Values); B16-FO cells; read-out: IC50_uM_Mean

| pIC50 | SMILES |
| --- | --- |
| 5.00 to 5.52 | CC1CCN(C[C@@H](NC(=O)CCCCCC(=O)c2ccccc2)[C@H](O)c2ccc3c(c2)OCCO3)CC1 [Compound 612] |
| ≥ 7.00 | COc1ccc(C(=O)CCCCC(=O)N[C@H](CN2CCCC2)[C@H](O)c2ccc(OCCCOc3ccc(F)cc3)cc2)cc1 [Compound 431] |
| 5.00 to 5.52 | O=C(CCCS(=O)(=O)C1CCCCC1)N[C@H](CN1CCCC1)[C@H](O)c1ccc2c(c1)OCCO2 [Compound 561] |
| 5.00 to 5.52 | CCCCCCCCCCCCCCCC(=O)N[C@H](CN(C)Cc1ccco1)[C@H](O)c1ccc2c(c1)OCCO2 [Compound 683] |
| 5.00 to 5.52 | COc1ccc(OCCC(=O)N[C@H](CN2CC(F)(F)C2)[C@H](O)c2ccc3c(c2)OCCO3)cc1 [Compound 622] |
| ≥ 7.00 | COCCc1ccc([C@@H](O)[C@@H](CN2CCCC2)NC(=O)CCCCCC(=O)c2ccc(OC)cc2)cc1 [Compound 479] |
| 5.00 to 5.52 | COc1ccc(OCCC(=O)N(Cc2nc3ccccc3s2)[C@H](CN2CCCC2)[C@H](O)c2ccc(O)cc2)cc1 [Compound 717] |
| 5.00 to 5.52 | COc1ccc(OCCC(=O)N(Cc2cccc3ccncc23)[C@H](CN2CCCC2)[C@H](O)c2ccc(O)cc2)cc1 [Compound 719] |
| 6.00 to 7.00 | COc1ccc(OCCC(=O)N[C@H](CN2CC3CC3C2)[C@H](O)c2ccc3c(c2)OCCO3)cc1 (stereo partly shown) [Compound 516] |
| ≥ 7.00 | Cc1ccc(OCCC(=O)N[C@H](CN2CC[C@H](O)C2)[C@H](O)c2ccc(OC(C)C)cc2)cc1 [Compound 738] |
| ≥ 7.00 | O=C(NCc1ccc(Cl)cc1)N[C@H](CN1CC[C@H](O)C1)[C@H](O)c1ccc(OCCCCF)cc1 [Compound 503] |
| ≥ 7.00 | COCCCCCCCC(=O)N[C@H](CN1CC[C@H](O)C1)[C@H](O)c1ccc(OC(C)C)cc1 [Compound 456] |
| 6.00 to 7.00 | O=C(CCCCC(=O)C1CCOCC1)N[C@H](CN1CC[C@@H](F)C1)[C@H](O)c1ccc(OCc2ccccc2)cc1 [Compound 576] |
| 5.00 to 5.52 | COc1ccc(C(=O)CCCCC(=O)N(Cc2cccnc2)[C@H](CN2CCCC2)[C@H](O)c2ccc(O)cc2)cc1 [Compound 425] |
| 6.00 to 7.00 | CCCCOc1ccc([C@@H](O)[C@@H](CN2CC[C@@H](F)C2)NC(=O)CCCCCOC2CCC2)cc1 [Compound 662] |
| 5.00 to 5.52 | O=C(CCC1CCOCC1)N[C@H](CN1CCCC1)[C@H](O)c1ccc2c(c1)OCCO2 [Compound 582] |
| 5.52 to 6.00 | O=C(CCCCCN1Cc2ccccc2C1=O)N[C@H](CN1CCCC1)[C@H](O)c1ccc2c(c1)OCCO2 [Compound 486] |
| 5.00 to 5.52 | COc1ccc(OCCC(=O)N[C@H](CN2CCCC2)[C@H](O)c2ccc3c(c2)OC(F)(F)C(F)(F)O3)cc1 [Compound 402] |
| ≥ 7.00 | COc1ccc(C(=O)CCCCCC(=O)N[C@H](CN2CCCC2)[C@H](O)c2ccc(Cl)cc2)cc1 [Compound 380] |
| ≥ 7.00 | O=C(Cc1ccc(OC(F)(F)F)cc1)N[C@H](CN1CCCC1)[C@H](O)c1ccc(OCc2ccccc2)cc1 [Compound 702] |
| 6.00 to 7.00 | COC[C@@H]1CCCN1C[C@@H](NC(=O)CCCCCC(=O)c1ccc(OC)cc1)[C@@H](O)c1ccc2c(c1)OCCO2 [Compound 533] |
| 5.52 to 6.00 | CCCCCCCC(=O)N[C@H](CN1CC[C@@H](O)C1)[C@H](O)c1ccc2c(c1)OCCO2 [Compound 512] |
| 6.00 to 7.00 | COc1ccc(OCCC(=O)N[C@H](CN2CCCC2)[C@H](O)c2ccc(O)cc2)cc1 [Compound 712] |

| pIC50 | SMILES |
| --- | --- |
| 6.00 to 7.00 | O=C(CCCS(=O)(=O)C1CCCCC1)N[C@H](CN1CC[C@@H](F)C1)[C@H](O)c1ccc(OCc2ccccc2)cc1 [Compound 577] |
| 6.00 to 7.00 | CCCCCCCC(=O)N[C@H](CN1CCCC1)[C@H](O)c1ccc(-c2ccccc2)cc1 [Compound 697] |
| 5.00 to 5.52 | O=C(CC1CCOCC1)N[C@H](CN1CCCC1)[C@H](O)c1ccc2c(c1)OCCO2 [Compound 580] |
| 5.00 to 5.52 | COc1ccc(C(=O)CCCCCC(=O)N[C@H](CN2CC(F)(F)C2)[C@H](O)c2ccc3c(c2)OCCO3)cc1 [Compound 618] |
| ≥ 7.00 | CCCCOc1ccc([C@@H](O)C(CN2CC[C@H](O)C2)NC(=O)CCCCCCCOC)cc1 (stereo partly shown) [Compound 592] |
| ≥ 7.00 | COc1ccc(C(=O)CCCCC(=O)N[C@H](CN2CCCC2)[C@H](O)c2ccc(OCCCCC(C)C)cc2)cc1 [Compound 436] |
| ≥ 7.00 | COc1ccc(CNC(=O)N[C@H](CN2CC[C@H](O)C2)[C@H](O)c2ccc(OCCCCF)cc2)cc1 [Compound 498] |
| 5.00 to 5.52 | COc1ccc(C(=O)CCCCC(=O)N(Cc2ccccn2)[C@H](CN2CCCC2)[C@H](O)c2ccc(O)cc2)cc1 [Compound 422] |
| 5.00 to 5.52 | O=C(Cc1ccc(OC(F)(F)F)cc1)N[C@H](CN1CCCC1)[C@H](O)/C=C/c1ccccc1 [Compound 392] |
| 5.00 to 5.52 | O=C(CCCCOC1CCOCC1)N[C@H](CN1CCCC1)[C@H](O)c1ccc2c(c1)OCCO2 [Compound 554] |
| 6.00 to 7.00 | COc1ccc(C(=O)CCCCC(=O)N[C@H](CN2CCCC2)[C@H](O)c2ccc(OC[C@H](C)CO)cc2)cc1 [Compound 439] |
| 6.00 to 7.00 | COCCc1ccc([C@@H](O)[C@@H](CN2CCCC2)NC(=O)Cc2ccc(OC(F)(F)F)cc2)cc1 [Compound 354] |
| 5.52 to 6.00 | COc1ccc(C(=O)CCCCCC(=O)N[C@H](CNC2CCC2)[C@H](O)c2ccc3c(c2)OCCO3)cc1 [Compound 460] |
| 6.00 to 7.00 | COc1ccc(C(=O)CCCCCC(=O)N[C@H](CN2CC[C@@H](O)C2)[C@H](O)c2ccc3c(c2)OCCO3)cc1 [Compound 518] |
| ≥ 7.00 | CCCCCCOc1ccc([C@@H](O)[C@@H](CN2CC[C@H](O)C2)NC(=O)CCCCCC(=O)c2ccc(OC)cc2)cc1 [Compound 372] |
| ≥ 7.00 | CCCCCCOc1ccc([C@@H](O)[C@@H](CN2CC[C@H](O)C2)NC(=O)CCOc2ccc(Cl)cc2)cc1 [Compound 729] |
| 6.00 to 7.00 | CCCCC(=O)CCCCCCC(=O)N[C@H](CN1CCCC1)[C@H](O)c1ccc2c(c1)OCCO2 [Compound 663] |
| 6.00 to 7.00 | COc1ccc([C@@H](O)[C@@H](CN2CCCC2)NC(=O)Cc2ccc(OC(F)(F)F)cc2)cc1F [Compound 342] |
| 5.52 to 6.00 | COc1ccc(C(=O)CCCC(=O)N[C@H](CN2CCCC2)[C@H](O)c2ccccc2OC)cc1 [Compound 701] |
| 6.00 to 7.00 | O=C(CCCCCS(=O)(=O)C1CCCCC1)N[C@H](CN1CCCC1)[C@H](O)c1ccc2c(c1)OCCO2 [Compound 562] |
| 6.00 to 7.00 | O=C(CCC12CC3CC(CC(C3)C1)C2)N[C@H](CN1CCCC1)[C@H](O)c1ccc2c(c1)OCCO2 [Compound 637] |
| 6.00 to 7.00 | O=C(CCCCCC1CCOCC1)N[C@H](CN1CCCC1)[C@H](O)c1ccc2c(c1)OCCO2 [Compound 559] |

| SMILES | pIC50 |
| --- | --- |
| O=C(CCOc1ccc(F)cc1)N[C@H](CN1C2CCC1CC2)[C@H](O)c1ccc2c(c1)OCCO2 [Compound 473] | ≥ 7.00 |
| O=C(CCCCCC(=O)c1ccc(F)cc1)N[C@H](CN1C2CCC1CC2)[C@H](O)c1ccc2c(c1)OCCO2 [Compound 475] | ≥ 7.00 |
| CCCCCCCC(=O)N[C@H](CN1C2CCC1CC2)[C@H](O)c1ccc2c(c1)OCCO2 [Compound 524] | 6.00 to 7.00 |
